The results in this text go back to patent US20260115285A1, “MEDICAMENT FOR TREATMENT AND/OR PREVENTION OF CANCER” (TORAY INDUSTRIES, INC., priority 2022, published 2026).

The test has as its system human colon cancer cell line (HCT116). The test can be described thus: Example 4: THP-1-mediated phagocytic activity, anti-CAPRIN-1, anti-CD20 or anti-HER-2 antibody alone or with olaparib. Format: cell-based. The following applies: 1×10^4 HCT116 cocultured 1 hour with 1×10^5 THP-1, antibody final concentration 1 μg/mL (1 μM); for combination HCT116 cultured 2 days with olaparib 20 μM beforehand; N=3. As for the experimental part: The human-derived cancer cell used was a colon cancer cell line HCT116.
Each cancer cell line after the culture was dissociated with TrypLE Express (Thermo), and the cancer cells were stained by the addition of calcein-AM at a final concentration of 0.04 μg/mL and incubation at 37° C. for 10 minutes. […] Further, dead cells were stained with propidium iodide (PI) (final concentration: 0.1 μg/mL), followed by the measurement of fluorescence from the cells by flow cytometry. PI-positive dead cells were excluded from analysis. The human monocytic cells THP-1 recognize an antibody bound onto cancer cells and phagocytize the cancer cells. At that time, if the cancer cells have been stained with calcein-AM, the monocytic cells ingesting the cancer cells by phagocytosis also become positive to calcein-AM. Thus, the phagocytic activity in this evaluation system was calculated as the ratio (%) of APC-positive/calcein-AM-positive cells to the whole calcein-AM-positive population.

For “anti-CD20 antibody: anti-CD20 antibody (“Rituxan”) purchased from Chugai Pharmaceutical Co., Ltd.”, the “phagocytic activity against cancer cells” value is reported as at most 7%.
